# Experimental data from patent US11351130B2, “Prevention and reversal of inflammation induced DNA damage” (Indiana University Research and Technology Corporation, priority 2017, dated 2022).
# Experiments:
# NFκB = experiment: NF-κB luciferase reporter transactivation assay; assay type: cell-based; conditions: read-out: inhibition of NFκB binding to the reporter construct, IC50
# Description: Reporter assays were performed as previously described (Georgiadis et al., 2008; Kelley et al., 2011; Cardoso et al., 2012b; Luo et al., 2012). Cells were transfected with NF-κB-Luciferase construct containing an NF-κB-response promoter and driving the expression of a luciferase gene and a Renilla luciferase control reporter vector pRL-CMV. After a 24-hour transfection period, cells were lysed, and Firefly and Renilla luciferase activities were assayed using Renilla luciferase activity for normalization. All of the transfection experiments were performed in triplicate and repeated at least three times in independent experiments. Data are expressed as mean±standard error from a representative experiment, and Student's t tests were performed.
# Pharmacokinetics (PK) = conditions: in vivo
# Description: (§1) PK studies were performed in the IU Simon Cancer Center Clinical Pharmacology Analytical Core (CPAC), as previously described for E3330 (Fishel et al., 2011) and standards for the compounds used. P450 metabolism studies using human microsomes were also performed in CPAC directed by Dr. David Jones.
# [1] = P450 metabolism analysis using human microsomes; assay type: in vitro ADME; conditions: human
# Description: as §1
# human microsomes = experiment: P450 metabolism analysis using human microsomes; assay type: in vitro ADME; conditions: vs E3330
# Description: as §1
# [2] = tested on: sensory neuronal cultures; experiment: Neuronal cell viability (trypan blue exclusion); assay type: cell-based; conditions: for effect on cisplatin-induced cell death: 20 μM for 48 hours prior to and throughout the cisplatin treatment (24 hours)
# Description: (§2) Primary cultures of sensory neurons were harvested and maintained as previously described (Vasko et al., 2005). Briefly, adult male Sprague-Dawley rats (150-175 g; Harlan, Indianapolis, Ind.) were euthanized by CO2 asphyxiation and dorsal root ganglia (DRG) dissected from all spinal levels, transferred to into a collagenase solution (1 mg/ml), incubated for 1 hour at 37° C., then dissociated by mechanical agitation. Approximately 30,000 cells or 60,000 cells were plated into each well of 12-well or 6-well culture plates, respectively. All culture dishes were precoated with poly-D-lysine and laminin. Cells were maintained in F-12 media supplemented with 10% horse serum, 2 mM glutamine, 100 μg/ml Normocin™, 50 μg/ml penicillin, 50 μg/ml streptomycin, 50 μM 5-fluoro-2′-deoxyuridine (Invitrogen), 150 μM uridine, and 30 ng/ml of NGF in 3% CO2 at 37° C. Growth medium was changed every other day. Experiments were performed after cells were maintained in culture for 12-14 days.
# Sensory neuronal culture trypan blue exclusion analysis was performed as previously described (Vasko et al., 2011). Cells were detached by adding a 0.05% trypsin-EDTA solution and media to each well. An equal volume of 0.4% (w/v) trypan blue in PBS was added to the cell suspension and the numbers of living cells (i.e., those that exclude the dye) were counted under a phase contrast microscope using a hemacytometer. Percent survival was calculated as the percent of live cells divided by the total cell number (including dead and live cells).
# APE1 [3] = target: T1, APE1 (Homo sapiens, UniProt P27695); experiment: AP endonuclease DNA repair assay; assay type: biochemical; conditions: APX2009 in the nanomolar range
# T1 sequence (P27695 whole entry, species assumed): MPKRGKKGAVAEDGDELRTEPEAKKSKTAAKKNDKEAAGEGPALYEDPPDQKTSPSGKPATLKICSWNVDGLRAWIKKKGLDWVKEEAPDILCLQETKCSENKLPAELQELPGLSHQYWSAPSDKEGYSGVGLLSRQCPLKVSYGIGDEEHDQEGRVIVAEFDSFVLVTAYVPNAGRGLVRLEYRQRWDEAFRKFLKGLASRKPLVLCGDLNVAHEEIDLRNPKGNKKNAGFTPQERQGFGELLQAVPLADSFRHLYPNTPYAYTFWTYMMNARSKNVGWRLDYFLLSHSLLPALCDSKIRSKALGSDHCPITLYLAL
# Description: Inhibition or enhancement of APE1 DNA repair endonuclease activity was performed as previously described (Bapat et al., 2010). The APE1 repair activity assay was performed in a plate assay using two annealed oligonucleotides (5′-6-FAM-GCCCCC*[…]-3′ (SEQ ID NO:3) and 3′-Q-[…]-5′ (SEQ ID NO:4)) containing a quencher on one strand and a fluorescent 6-FAM label with tetrahydrofuran as an AP site mimic. Oligo cleavage at the AP mimic site results in 6-FAM release and detection. The fluorescence was read at five, one-minute intervals using a Tecan Ultra plate reader (Chemical Genomics Core, Indiana University School of Medicine). The rate of the reaction was used to determine the change in APE1 repair activity as compared to the vehicle control.
# [4] = tested on: sensory neurons in culture; assay type: cell-based, rat; conditions: for effect on cisplatin-induced reduction in capsaicin-evoked CGRP release: 72 hour treatment, 10 μM cisplatin
# Description: as §2
# For release experiments, cell cultures were washed with HEPES buffer consisting of (in mM) 25 HEPES, 135 NaCl, 3.5 KCl, 2.5 CaCl2, 1 MgCl2, 3.3 D-glucose, and 0.1% bovine serum albumin, pH 7.4 and maintained at 37° C. They then were incubated for successive 10-minute intervals with 0.4 ml of HEPES buffer alone (basal release), with buffer containing 30 nM capsaicin, then with buffer alone (to assess return to basal release). After each incubation, the buffer was removed and the amount of immunoreactive calcitonin-gene related peptide (CGRP) in each sample was measured using radioimmunoassay (RIA) as previously described (Chen et al., 1996). At the end of the release protocol, CGRP is extracted from the cultures and total content measured using RIA.
# [5] = tested on: sensory neuronal cultures; experiment: phospho-H2AX immunoblotting in sensory neuronal cultures (Example 3); assay type: cell-based, rat; conditions: for effect on cisplatin-induced pH2AX levels (DNA damage): 20 μM for 48 hours prior to and throughout exposure to 10 μM cisplatin
# Description: as §2
# Immunoblotting was performed as previously described (Kelley et al., 2014). Briefly, cells were lysed in RIPA buffer (Santa Cruz Biotechnology; Santa Cruz, Calif., USA) and protein was quantified using the Lowey assay. Proteins were separated by electrophoresis on a 4-12% SDS-polyacrylamide gel. The gel was transferred to a PVDF membrane and incubated overnight at 4° C. in Tris-buffered saline containing 0.1% Tween-20 (TBST) and 5% nonfat dry milk while gently agitating. Mouse monoclonal antihuman Ape1 antibodies (1:500), mouse monoclonal anti-phospho H2AX antibodies (1:1000), or (3-Actin monoclonal antibody (1:1000) were added to the blocking solution and incubated overnight at room temperature while gently agitating. Antibody binding was detected following appropriate secondary antibody methods using chemiluminescence. The density of the bands was measured using QUALITYONE® software from Bio-Rad (Hercules, Calif.) and data expressed as density normalized to actin.
# [6] = tested on: Pa03C patient-derived PDAC cells; experiment: Tumor and CAF 3D co-cultures, tumor cells; assay type: cell-based, human; conditions: tumor alone or co-cultured with CAFs, 12 days in culture, vs vehicle control
# Description: (§3) Patient-derived tumor cells and CAF19 cells were a kind gift from Dr. Anirban Maitra (The Johns Hopkins University M.D. Anderson Cancer Center) (Jones et al., 2008). All cell lines were authenticated via STR analysis (IDEXX BioResearch) and checked routinely for mycoplasma contamination. Ultra low attachment 96-well plates (Corning Inc., Life Sciences) were used to generate 3-dimensional tumor spheroids in the presence and absence of CAFs, as described previously (Sempere et al., 2011; Arpin, 2015). TdTomato-labeled PDAC cells and EGFP-labeled CAFs are resuspended in colorless DMEM media containing 3% Reduced Growth Factor Matrigel (BD Biosciences) and 5% FBS at a cell ratio of 1:4 (tumor:CAF) and fed on days 4 and 8 following plating. Both cell populations are quantitated for intensity and area via Thermo ArrayScan at day 12 of co-culture.
# CAF19 cells = experiment: Tumor and CAF 3D co-cultures, CAFs; assay type: cell-based, human; conditions: co-culture with tumor cells, 12 days in culture
# Description: as §3
# APE1 [7] = target: T1, APE1; experiment: redox APE1 electrophoretic mobility shift assay (EMSA); assay type: biochemical; set-up: Purified APE1 was reduced with 1.0 mM DTT for 10 minutes; conditions: read-out: redox inhibition IC50
# Description: EMSAs were performed as described (Luo et al., 2012). Purified APE1 was reduced with 1.0 mM DTT for 10 minutes and diluted to a final concentration of 0.006 mM with 0.02 mM DTT in PBS. Reduced APE1 was added to EMSA reaction buffer (10 mM Tris (pH 7.5), 50 mM NaCl, 1 mM MgCl2, 1 mM EDTA, 5% [vol/vol] glycerol) with […] 0.007 mM protein mixture (1:1) of purified truncated c-Jun and c-Fos proteins containing DNA-binding domain and leucine zipper and incubated for 30 minutes at room temperature. The EMSA assay was performed as previously described (Luo et al., 2008; Nyland et al., 2010; Kelley et al., 2011; Luo et al., 2012).
# APE1 [8] = experiment: APE1 expression (immunoblotting) after siRNA; assay type: cell-based, rat; conditions: 100 nM siRNA
# Description: Small interfering RNAs to APE1 (APE1siRNA) and scrambled siRNA (SCsiRNA) controls were used to decrease APE1 protein expression in sensory neuronal cell cultures and as controls, respectively, as described previously (Vasko et al., 2005, Jiang et al., 2008a). On day 3 in culture, the growth media was replaced with 0.5 ml of Opti-MEM 1 media containing 100 nM of APE1siRNA (5′-[…]-3′ (SEQ ID NO:1)) or SCsiRNA (5′-[…]-3′(SEQ ID NO:2)); (Vasko et al., 2005)) and 10 μl of the transfecting reagent, Neuroporter. On the next day, 0.5 ml of the growth media without antibiotics was added to each well, and after an additional 24 hours the media containing siRNA was replaced with normal growth media.
# Tissues or cells were harvested, lysed in RIPA buffer (Santa Cruz Biotechnology; Santa Cruz, Calif., USA), sonicated, and cleared of cellular debris by centrifuging at 4000 RPM for 2 minutes. Protein was quantified using Lowry assay, and electrophoresed in a 12% SDS-polyacrylamide gel. […] Antibody binding was detected following appropriate secondary antibody methods using chemiluminescence. The density of the bands was measured using Quantity One software from Bio-Rad (Hercules, Calif.) and data expressed as density normalized to vinculin.
molecule,measurement,setting,value
"CCC/C(=C\C1=C(OC)C(=O)c2ccccc2C1=O)C(=O)N(CC)CC [APX2009, (2E)-2-[(3-methoxy-1,4-dioxo-1,4-dihydronaphthalen-2-yl)methylidene]-N,N-diethylpentanamide]",IC50,NFκB,7 µM
same,half-life,Pharmacokinetics (PK),25.8 h
same,half-life increase compared to E3330,Pharmacokinetics (PK),~7 fold
same,half-life,[1],2.88 h
same,"half-life increase, P450 metabolism analysis",human microsomes,8.7 fold
same,effect on cisplatin-induced cell death,[2],blocked
same,protection from oxaliplatin-induced cell killing,"[2]; 10 or 20 μM, 72-hour treatment, oxaliplatin 24 hours",protected the sensory neuronal cultures from cell killing
same,"cell death / cell viability, drug alone","[2]; 24 hours, E3330 10, 20 or 40 μM, APX2009 various concentrations",did not result in a significant reduction in cell viability
same,APE1 repair (endonuclease) activity,APE1 [3],stimulation of APE1 repair activity
same,effect on cisplatin-induced reduction in capsaicin-evoked CGRP release,[4]; 10 μM,did not prevent the cisplatin-induced reduction in release
same,effect on oxaliplatin-induced decrease in CGRP release,[4]; 48 hours prior to and throughout exposure to oxaliplatin for 24 hours,prevented the oxaliplatin-induced decrease in CGRP release
same,"basal (resting) release or release of CGRP stimulated by 30 nM capsaicin, drug alone","[4]; 72 hours, E3330 20 μM, APX2009 10 or 20 μM, compared to untreated cells",no significant change
same,effect on cisplatin-induced pH2AX levels (DNA damage),[5],significantly reduced the levels of pH2AX
same,phosphorylation of H2AX after oxaliplatin,"[5]; 20 μM, 24 and 48 hr treatments of 30 μM oxaliplatin",significantly reduced the phosphorylation of H2AX
same,tumor intensity and area in 3D spheroids,[6],statistical differences were observed for the tumor alone or tumor co-cultured with CAFs
same,CAF intensity and area in 3D spheroids,CAF19 cells,not significantly affected
same,IC50,APE1 [7],1 µM
"APE1siRNA: Small interfering RNA to APE1, 5′-GUCUGGUAAGACUGGAGUACC-3′ (SEQ ID NO:1) (chemistry not given here)",APE1 expression relative to wildtype expression,APE1 [8],~20%
COC1=C(/C=C(\C)C(=O)N(C)C)C(=O)c2ccccc2C1=O [APX2032],IC50,NFκB,7 µM
same,effect on cisplatin-induced cell death,[2],did not attenuate the cisplatin-induced cell death
same,"cell viability, drug alone","[2]; 20 μM or 40 μM, 24 hours",significant reduction in cell viability
same,"cell death, drug alone","[2]; 20 or 40 μM, 72 hours (data not shown)",significant increase in cell death
same,APE1 repair (endonuclease) activity,APE1 [3],no effect
same,effect on cisplatin-induced reduction in capsaicin-evoked CGRP release,[4]; 10 μM,did block the effect of cisplatin
same,"CGRP release, drug alone","[4]; 10 μM, 72 hours",did not affect CGRP release
same,"capsaicin-stimulated release of CGRP, drug alone","[4]; 20 μM, 72 hours",significant increase in capsaicin-stimulated release
same,effect on cisplatin-induced pH2AX levels (DNA damage),[5],neither APX2007 nor APX2032 (20 μM) altered the ability of cisplatin to produce DNA damage
same,IC50,APE1 [7],1 µM
